{"source": "patent US6150414A", "about": "“Compositions and methods for treating viral infections” (priority 1992, dated 2000)", "key": {"Friend Leukemia Virus [1]": {"tested_on": "Friend Leukemia Virus", "assay": "Inhibition of Friend Leukemia Virus-induced splenomegaly in mice, compounds intraperitoneally 24 hours after virus (Example 1(a))", "assay_type": "in vivo, BALB/c mice", "design": "Actual Spleen Weight / Average Spleen Weight: unit not given here", "conditions": "for Actual Spleen Weight: single animal; for inhibition in vivo at 0.1 mg / inhibition in vivo at 0.05 mg / inhibition in vivo at 0.2 mg: Mus musculus, ip; for Pooled Average % Inhibition: pooled over 50, 100, 200, 2 × 100 micrograms", "source_text": "The effects of compositions according to the present invention on infection of mammals with Friend Leukemia Virus (FV) were examined.\nFriend Leukemia Virus is an aggressive retrovirus which induces an acute erythroleukemia in sensitive strains of mice such as BALB/c and NIH swiss mice as described in Friend, C. J., Exp. Med. 105: 307-324, 1957; Friend, C. et al. Proc. Natl. Acad. Sci. USA 68: 378-383, 1971; Friend, C. et al. Natl. Cancer Inst. Mongr. 22: 508-552, 1966. The malignant transformation is the result of the combined activities of the Spleen Focus Forming Virus (SFFV) and the ecotropic Murine Friend Leukemia Helper Virus (F-MuLV). The acute erythroleukemia is characterized by hepatosplenomegaly (a marked increase in the size of the spleen and liver) and a severe anemia.\nFriend Leukemia Virus was prepared by homogenizing the enlarged spleen of a mouse previously infected with FV, 10 days after intravenous virus injection. The spleen was homogenized in phosphate buffered saline in a volume equal to ten times the weight of the isolated spleen.\n(§1) The effects of compositions according to the present invention on the increase in spleen size (splenomegaly) of BALB/c mice (Jackson Labs, Bar Harbor, ME) was examined. In these experiments, the virus (10^6 focus forming units--FFU) was inoculated intravenously and 100 micrograms of the compounds indicated in Table II were administered to the mice intraperitoneally 24 hours later. Each compound was administered once to two mice. The animals were sacrificed ten days later and their spleens weighed.\nThe present assay has been developed from similar assays using hypericin or pseudohypericin and employing higher numbers of experimental animals per group (e.g. 4 animals). It was discovered however that the specificity and sensitivity of this assay are such that an experimental group of two animals is of more than adequate predictive value.\n(§2) As used in Table II (and subsequent Tables of this Example l(a) and (b), \"average percent inhibition\" is calculated as follows: [formula] wherein \"ASWNC\" designates \"average spleen weight of negative control\"; \"ASWE\" designates \"average spleen weight of experimental (treated) subject\"; and \"ASWPC\" designates \"average spleen weight of positive control\". Average spleen weight is the numerical average of spleen weights of each experimental group (in Table II each such group includes two members).\nIn these experiments, the virus (10^6 focus forming units--FFU) was inoculated intravenously, and the indicated doses of the antiviral compounds of this invention were administered to the BALB/c mice intraperitoneally 24 hours later. The animals were then sacrificed ten days later and their spleens weighed.\nPseudohypericin was diluted in phosphate buffered saline with 1% ethanol.\nAn expanded series of experiments was next performed in which various concentrations (i.e. 50, 100, 200 and 2×100, i.e., 100 micrograms administered twice) of a different set of PAC compounds (numbers 16-29 and 30-36 in Table III below) were administered intraperitoneally each according to the same protocol described above. Compounds 16-29 all had 3-5 fused, aromatic rings and no side groups except for oxygen or hydroxyl groups, whereas compounds 30-36 all had 3 fused aromatic rings and side chains selected from the group of oxygen, hydroxyl and methyl.\nWhen 2 doses of the compounds were given, the second dose was administered 24-48 hours after the first injection. The animals were infected and splenomegaly determined as above for the compounds in Table II. In Table III, \"pooled average percent inhibition\" is calculated by adding the average percent inhibition for each experiment with the same compound and dividing the sum by the number of experiments (i.e. the number 4). […]"}, "Friend Leukemia Virus [2]": {"tested_on": "Friend Leukemia Virus", "assay": "FV-induced splenomegaly, PAC compounds in combination with AZT (Example 1(b))", "assay_type": "in vivo, BALB/c mice", "design": "Spleen weight / Average Spleen Weight: unit not given here", "conditions": "for Spleen weight: single animal", "method": "as §1, §2\nThe compounds of the present invention (100 micrograms per mouse) were also tested in combination with AZT (20 micrograms per mouse, twice a day) using otherwise the same methods as in Example 1(a) above. As representatives, compound #9 above (3-bromophenanthro (3,4-C), phenanthrene) and compound #10 (diindeno (1, 2, 3-CD/1', 2', 3'-IM) Perylene) were chosen. […] The compounds were administered i.p. either once or five times (once per day) alone or together with AZT (20 micrograms of AZT per mouse twice a day for five days?). Thus, in experiments where AZT was administered five times, a total of […] of AZT was received by each mouse (with a total of 500 micrograms of the PAC compound)."}, "[3]": {"conditions": "100 micrograms i.p. once, 24 h after FV, Table II"}, "[4]": {"conditions": "dose 2 × 100 (micrograms) i.p., Table III, read-out: Average Perdosage % Inhibition"}, "[5]": {"conditions": "dose 50 (micrograms) i.p., Table III, read-out: Average Perdosage % Inhibition"}, "[6]": {"conditions": "dose 200 (micrograms) i.p., Table III, read-out: Average Perdosage % Inhibition"}, "[7]": {"conditions": "dose 2 × 100 (micrograms) i.p., Table III"}, "[8]": {"conditions": "dose 50 (micrograms) i.p., Table III"}, "[9]": {"conditions": "dose 100 (micrograms) i.p., Table III"}, "[10]": {"conditions": "dose 200 (micrograms) i.p., Table III"}, "[11]": {"conditions": "1X, 100 micrograms per mouse i.p."}, "[12]": {"conditions": "5X, 100 micrograms per mouse i.p. once per day"}, "[13]": {"conditions": "24 h, read-out: Average % Inhibition, 100 micrograms i.p. once, 24 h after FV, Table II"}}, "note": "Several values for one entry are separate records, joined by “and”; a condition that tells them apart may be missing. Equal entries are not always repeated. Where two headings read alike, the source gives them in different places.", "data": [{"compound": "O=C1c2ccccc2-c2ccc3c4ccc5c6c(ccc(c7ccc1c2c73)c64)-c1ccccc1C5=O", "note": "[Compound 3, Isoviolanthrone]", "values": [{"measurement": "Average % Inhibition", "setting": "Friend Leukemia Virus [1]; [3]", "value": 41.5, "unit": "%"}, {"measurement": "Average Spleen Weight", "setting": "Friend Leukemia Virus [1]; [3]", "value": 0.5001}, {"measurement": "Actual Spleen Weight", "setting": "Friend Leukemia Virus [1]; [3]", "value": "0.5147 and 0.4855"}]}, {"compound": "c1ccc2c(c1)CCc1ccccc1-2", "note": "[Compound 20]", "values": [{"measurement": "inhibition in vivo at 0.1 mg", "setting": "Friend Leukemia Virus [1]; [4]", "value": 6, "unit": "%"}, {"measurement": "inhibition in vivo at 0.05 mg", "setting": "Friend Leukemia Virus [1]; [5]", "value": 22, "unit": "%"}, {"measurement": "inhibition in vivo at 0.2 mg", "setting": "Friend Leukemia Virus [1]; [6]", "value": 11, "unit": "%"}, {"measurement": "Average Spleen Weight", "setting": "Friend Leukemia Virus [1]; [7]", "value": 1.5023}, {"measurement": "Average Spleen Weight", "setting": "Friend Leukemia Virus [1]; [8]", "value": 1.2758}, {"measurement": "Average Spleen Weight", "setting": "Friend Leukemia Virus [1]; [9]", "value": 2.0019}, {"measurement": "Average Spleen Weight", "setting": "Friend Leukemia Virus [1]; [10]", "value": 1.4315}, {"measurement": "Pooled Average % Inhibition", "setting": "Friend Leukemia Virus [1]; Table III", "value": 3, "unit": "%"}]}, {"compound": "c1cc2c3c(ccc4c3c1CCC4)CCC2", "note": "[Compound 23, 1,2,3,6,7,8-Hexahydropyrene]", "values": [{"measurement": "inhibition in vivo at 0.1 mg", "setting": "Friend Leukemia Virus [1]; [4]", "value": 32, "unit": "%"}, {"measurement": "inhibition in vivo at 0.05 mg", "setting": "Friend Leukemia Virus [1]; [5]", "value": 26, "unit": "%"}, {"measurement": "inhibition in vivo at 0.1 mg", "setting": "Friend Leukemia Virus [1]; dose 100 (micrograms) i.p., Table III, read-out: Average Perdosage % Inhibition", "value": 6, "unit": "%"}, {"measurement": "inhibition in vivo at 0.2 mg", "setting": "Friend Leukemia Virus [1]; [6]", "value": 34, "unit": "%"}, {"measurement": "Average Spleen Weight", "setting": "Friend Leukemia Virus [1]; [7]", "value": 1.1281}, {"measurement": "Average Spleen Weight", "setting": "Friend Leukemia Virus [1]; [8]", "value": 1.2092}, {"measurement": "Average Spleen Weight", "setting": "Friend Leukemia Virus [1]; [9]", "value": 1.5131}, {"measurement": "Average Spleen Weight", "setting": "Friend Leukemia Virus [1]; [10]", "value": 1.0961}, {"measurement": "Pooled Average % Inhibition", "setting": "Friend Leukemia Virus [1]; Table III", "value": 25, "unit": "%"}]}, {"compound": "c1ccc2c(c1)-c1ccc3c4ccc5c6c(ccc(c7ccc-2c1c37)c64)-c1ccccc1-5", "note": "[Compound 10, Diindeno(1,2,3-CD/1',2',3'-IM)Perylene]", "values": [{"measurement": "% Inhibition", "setting": "Friend Leukemia Virus [2]; [11]", "value": 22, "unit": "%"}, {"measurement": "Average Spleen Weight", "setting": "Friend Leukemia Virus [2]; [11]", "value": 1.724}, {"measurement": "Spleen weight", "setting": "Friend Leukemia Virus [2]; [11]", "value": "1.7816 and 1.6664"}, {"measurement": "% Inhibition", "setting": "Friend Leukemia Virus [2]; [12]", "value": 46, "unit": "%"}, {"measurement": "Average Spleen Weight", "setting": "Friend Leukemia Virus [2]; [12]", "value": 1.2358}, {"measurement": "Spleen weight", "setting": "Friend Leukemia Virus [2]; [12]", "value": "1.5771 and 0.8945"}, {"measurement": "Average % Inhibition", "setting": "Friend Leukemia Virus [1]; [3]", "value": 44.3, "unit": "%"}, {"measurement": "Average Spleen Weight", "setting": "Friend Leukemia Virus [1]; [3]", "value": 0.4767}, {"measurement": "Average % Inhibition", "setting": "Friend Leukemia Virus [1]; 100 micrograms i.p. once, 24 h after FV, Table II, listed as #10", "value": "> 40", "unit": "%"}, {"measurement": "Actual Spleen Weight", "setting": "Friend Leukemia Virus [1]; [3]", "value": "0.4809 and 0.4724"}]}, {"compound": "CC1=CC2CCc3ccc4ccccc4c3C2c2c1ccc1ccccc21", "note": "(stereo not shown) [Compound 12, 4A,5,6,12C-Tetrahydro-3-Methylphenanthro (3,4-C)phenanthrene]", "values": [{"measurement": "Average Spleen Weight", "setting": "Friend Leukemia Virus [1]; [3]", "value": 0.4531}, {"measurement": "inhibition in vivo at 0.1 mg", "setting": "Friend Leukemia Virus [1]; [13]", "value": 47.1, "unit": "%"}]}, {"compound": "c1cc2ccc3ccc4ccc5ccc6ccc1c1c2c3c4c5c61", "note": "[Compound 8, Coronene]", "values": [{"measurement": "Average Spleen Weight", "setting": "Friend Leukemia Virus [1]; [3]", "value": 0.4739}, {"measurement": "inhibition of FV-induced splenomegaly / anti-retroviral activity", "setting": "Friend Leukemia Virus [1]; Example 1(a)", "value": "significantly inhibited FV-induced splenomegaly"}, {"measurement": "inhibition in vivo at 0.1 mg", "setting": "Friend Leukemia Virus [1]; [13]", "value": 44.6, "unit": "%"}]}, {"compound": "c1ccc2c(c1)ccc1ccc3ccc4ccc5ccccc5c4c3c12", "note": "[Compound 14, Phenanthro(3,4-C)Phenanthrene]", "values": [{"measurement": "Average Spleen Weight", "setting": "Friend Leukemia Virus [1]; [3]", "value": 0.5419}, {"measurement": "inhibition in vivo at 0.1 mg", "setting": "Friend Leukemia Virus [1]; [13]", "value": 36.6, "unit": "%"}]}]}
